Assay results taken from PubChem BioAssay (NCI).
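Protocol summary: plate cells (96-well), add compound at 5 concentrations, incubate 48 h, interpolate endpoints linearly. GI50 is the concentration that inhibits growth by half. Definition used: TGI = concentration required for complete inhibition of growth.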

What was measured:
Assay in all cases: inhibition of tumour cell growth, NCI panel, 48 h
SK-MEL-2 melanoma = test system: SK-MEL-2 melanoma
M14 melanoma = test system: M14 melanoma
UACC-257 melanoma = test system: UACC-257 melanoma
786-0 renal = test system: 786-0 renal
ACHN renal = test system: ACHN renal
OVCAR-3 ovarian = test system: OVCAR-3 ovarian
HCT-15 colon = test system: HCT-15 colon
SNB-19 CNS = test system: SNB-19 CNS
SR leukemia = test system: SR leukemia

SMILES	TGI (SK-MEL-2 melanoma) [µM]	TGI (M14 melanoma) [µM]	TGI (UACC-257 melanoma) [µM]	TGI (786-0 renal) [µM]	TGI (ACHN renal) [µM]	TGI (OVCAR-3 ovarian) [µM]	TGI (HCT-15 colon) [µM]	TGI (SNB-19 CNS) [µM]	TGI (SR leukemia) [µM]	GI50 (SK-MEL-2 melanoma) [µM]	GI50 (M14 melanoma) [µM]	GI50 (UACC-257 melanoma) [µM]	GI50 (786-0 renal) [µM]	GI50 (ACHN renal) [µM]	GI50 (OVCAR-3 ovarian) [µM]	GI50 (HCT-15 colon) [µM]	GI50 (SNB-19 CNS) [µM]
CC(C)(C)CC(C)(C)c1cc2c(O)c(c1)Cc1cc(C(C)(C)CC(C)(C)C)cc(c1O)Cc1cc(C(C)(C)CC(C)(C)C)cc(c1O)Cc1cc(C(C)(C)CC(C)(C)C)cc(c1O)Cc1cc(C(C)(C)CC(C)(C)C)cc(c1O)Cc1cc(C(C)(C)CC(C)(C)C)cc(c1O)Cc1cc(C(C)(C)CC(C)(C)C)cc(c1O)Cc1cc(C(C)(C)CC(C)(C)C)cc(c1O)C2	> 100	> 100	> 100	> 100	> 100	> 100	> 100	> 100	–	–	–	–	–	–	–	–	–
Cc1cccc(/C=N/N=C(\N)NO)n1	> 100	> 100	> 100	> 100	> 100	> 100	–	–	> 100	–	–	–	–	–	–	–	–
COC(=O)CCC(=O)Nc1cc(C)ccc1C	> 100	> 100	> 100	> 100	> 100	> 100	–	> 100	–	–	–	–	–	–	–	–	–
C=CC(=O)N1CCC(CNc2ncnc(N)c2-c2ccc(Oc3ccccc3)cc2)CC1	42	> 100	> 100	92.9	70.7	85.1	> 100	> 100	–	19.3	31.6	38.5	17.7	23.4	27.6	26.6	32.8
C=CCC(O)c1cc(OC)ccc1OC (stereo unspecified)	> 100	> 100	> 100	> 100	> 100	> 100	> 100	> 100	–	–	–	–	–	–	–	–	–
O=C(CC(=O)c1cccc2ccccc12)C(=O)Nc1nccs1	> 100	> 100	> 100	> 100	> 100	> 100	> 100	–	> 100	–	–	–	–	–	–	–	–
Nc1ncnc2c1N=CN(Oc1ccccc1)N2	> 100	> 100	> 100	> 100	> 100	> 100	> 100	–	> 100	–	–	–	–	–	–	–	–
[N-]=[N+]=Nc1nnc(CCCCc2nnc(N=[N+]=[N-])o2)o1	> 100	> 100	> 100	> 100	> 100	> 100	> 100	> 100	–	–	–	–	–	–	–	–	–
OCC(O)C(OC1OC(CO)C(O)C(O)C1O)c1nn(-c2ccc(Cl)cc2)c2nc3cc(Cl)c(Cl)cc3nc12 (stereo unspecified)	–	> 100	> 100	> 100	> 100	> 100	> 100	> 100	> 100	–	–	–	–	–	–	–	–
O=c1c2cc(Br)ccc2n(C2OC(CO)C(O)C(O)C2O)c(=S)n1-c1ccccc1 (stereo unspecified)	> 100	–	> 100	> 100	> 100	> 100	> 100	> 100	> 100	–	–	–	–	–	–	–	–
C=CC(=O)OCCCS(=O)(=O)[O-].C=CC(=O)OCCCS(=O)(=O)[O-].NC1CCCCC1N.[Pt+4]	> 25	> 25	> 25	> 25	> 25	> 25	> 25	> 25	–	> 25	> 25	> 25	> 25	> 25	> 25	> 25	> 25
Nc1ccccc1-n1c2c(c3ccccc3c1=O)C(=O)c1ccccc1-2	52.8	> 100	> 100	55.6	18.3	55.1	> 100	23.8	–	–	–	–	–	–	–	–	–
CC/C(=N/O)C(C)C(=O)CCC(=O)Nc1ccc(Cl)cc1 (stereo unspecified)	> 100	> 100	> 100	> 100	> 100	> 100	> 100	> 100	–	–	–	–	–	–	–	–	–
CCSc1nnc(-c2ccc3ccccc3c2O)n1-c1ccccc1	–	–	> 100	> 100	–	> 100	> 100	–	–	–	–	> 100	> 100	–	> 100	2.72	–
CC(C)(C)[Si](C)(C)O/N=C\c1cccc(O[Si](C)(C)C(C)(C)C)c1	35.3	29.4	46.2	35.1	32	29.8	35.7	36.6	–	–	–	–	–	–	–	–	–
COC(=O)c1ccc(N/C=C(/C#N)c2ccsc2)cc1	50.7	–	> 100	23.3	18.8	23.1	> 100	29.8	> 100	–	–	–	–	–	–	–	–
COc1ccc(C2C(C(=O)O)=C(CO)Oc3cc4c(cc32)OCO4)c(OC)c1 (stereo unspecified)	–	> 100	> 100	> 100	> 100	> 100	> 100	> 100	–	–	–	–	–	–	–	–	–
CC1=C(C(=O)NCc2ccccc2)C(c2ccc(N(C)C)cc2)C(C(=O)NCc2ccccc2)=C(C)N1	> 100	> 100	> 100	> 100	> 100	> 100	–	> 100	–	–	–	–	–	–	–	–	–
